Experiments:
[1] = tested on: subject with type 2 diabetes; experiment: Post-prandial glycemic profile (finger-prick blood sugar) after white rice breakfast, subjects with type 2 diabetes; type: in vivo, human; conditions: T2D5
Protocol: 160 g microwaveable white rice (details, amount of available carbohydrate?) was eaten together with a cup of water.
240 g microwaveable white rice (Uncle Bens Brand Microwavable White Rice, […] of available carbohydrate) and 200 ml of hot tea.
Finger-prick blood sugar readings were taken before consumption of the standard meal in the morning (i.e. the standard meal was breakfast). Two readings were taken and the average value was used as the blood sugar reading. After consumption of the meal, another blood sugar reading was taken. Further blood sugar readings were taken at 15-minute intervals thereafter.
A subject with type 2 diabetes (T2D1, person) was given a standard white rice breakfast (Example A2) and was tested for post-prandial glycemic profile—this was the first control glycemic profile. […] This was the third control glycemic profile. […] This was the test glycemic profile. […]
A subject with type 2 diabetes (T2D5, person) was given a standard white rice breakfast (Example A2) and was tested for post-prandial glycemic profile—this was the first control glycemic profile. […] This was the third control glycemic profile. […] This was the test glycemic profile.
This was the second glycemic test profile.
This was the second test glycemic profile.
This was the first glycemic test profile.

[2] = tested on: subject with type 2 diabetes; experiment: Post-prandial glycemic profile (finger-prick blood sugar) after white bread breakfast, subjects with type 2 diabetes; type: in vivo, human
Text: 2 slices of thick-cut savoury white bread spread with 29 g jam (over both slices) were eaten together with a cup of tea or coffee. A total available carbohydrate per serve was 50 g. 2 slices of thick-cut savoury white bread spread with 29 g jam (over both slices) were eaten together with a cup of tea or coffee. […] A total available carbohydrate per serve was 50 g. Finger-prick blood sugar readings were taken before consumption of the standard meal in the morning (i.e. the standard meal was breakfast). Two readings were taken and the average value was used as the blood sugar reading. After consumption of the meal, another blood sugar reading was taken. Further blood sugar readings were taken at 15-minute intervals thereafter. […] This was the first glycemic test profile. […] This was the second glycemic test profile. […] This was the first test glycemic profile. […] This was the second glycemic test profile.

patients = conditions: 1255 patients, Acarbose tablets 50-300 mg t.i.d.; cited from earlier work

## C[C@H]1O[C@H](O[C@H]2[C@H](O)[C@@H](O)[C@@H](O[C@H]3[C@H](O)[C@@H](O)C(O)O[C@@H]3CO)O[C@@H]2CO)[C@H](O)[C@@H](O)[C@@H]1N[C@H]1C=C(CO)[C@@H](O)[C@H](O)[C@H]1O (stereo partly shown) [acarbose]
[1]; 240 g white rice (Example B2), time after eating 180 min
  glycemic profile (mM blood glucose): 6.5 mM
[1]; 240 g white rice (Example B2), time after eating −10 min
  glycemic profile (mM blood glucose): 5.2 mM
[1]; 240 g white rice (Example B2), time after eating −25 min
  glycemic profile (mM blood glucose): 5 mM
[1]; 240 g white rice (Example B6), time after eating 0 min
  glycemic profile (mM blood glucose): 7.4 mM
[1]; 240 g white rice (Example B6), time after eating 30 min
  glycemic profile (mM blood glucose): 10.4 mM
[1]; 240 g white rice (Example B6), time after eating 45 min
  glycemic profile (mM blood glucose): 10.15 mM
[1]; 240 g white rice (Example B6), time after eating 60 min
  glycemic profile (mM blood glucose): 9.76 mM
[1]; 240 g white rice (Example B6), time after eating 75 min
  glycemic profile (mM blood glucose): 9.95 mM
[1]; 240 g white rice (Example B6), time after eating 165 min
  glycemic profile (mM blood glucose): 7.3 mM
[1]; 240 g white rice (Example B6), time after eating 180 min
  glycemic profile (mM blood glucose): 6.5 mM
[1]; 240 g white rice (Example B6), time after eating −10 min
  glycemic profile (mM blood glucose): 5.2 mM
[1]; 240 g white rice (Example B6), time after eating −25 min
  glycemic profile (mM blood glucose): 5 mM
[1]; 240 g white rice, baselines of both profiles matched
  peak glucose height, rise above baseline: 5.3 mmol/L
[2]; T2D5, 2 slices white bread + 29 g jam (Example B4), time after eating 0 min
  glycemic profile (mM blood glucose): 8.5 mM
[2]; T2D5, 2 slices white bread + 29 g jam (Example B4), time after eating 15 min
  glycemic profile (mM blood glucose): 9.3 mM
[2]; T2D5, 2 slices white bread + 29 g jam (Example B4), time after eating 30 min
  glycemic profile (mM blood glucose): 9.5 mM
[2]; T2D5, 2 slices white bread + 29 g jam (Example B4), time after eating 45 min
  glycemic profile (mM blood glucose): 9.65 mM
[2]; T2D5, 2 slices white bread + 29 g jam (Example B4), time after eating 60 min
  glycemic profile (mM blood glucose): 9.85 mM
[2]; T2D5, 2 slices white bread + 29 g jam (Example B4), time after eating 75 min
  glycemic profile (mM blood glucose): 9.6 mM
[2]; T2D5, 2 slices white bread + 29 g jam (Example B4), time after eating 90 min
  glycemic profile (mM blood glucose): 9.8 mM
[2]; T2D5, 2 slices white bread + 29 g jam (Example B4), time after eating 105 min
  glycemic profile (mM blood glucose): 9.35 mM
[2]; T2D5, 2 slices white bread + 29 g jam (Example B4), time after eating 120 min
  glycemic profile (mM blood glucose): 9.05 mM
[2]; T2D5, 2 slices white bread + 29 g jam (Example B4), time after eating 135 min
  glycemic profile (mM blood glucose): 7.65 mM
[2]; T2D5, 2 slices white bread + 29 g jam (Example B4), time after eating 150 min
  glycemic profile (mM blood glucose): 6.93 mM
[2]; T2D5, 2 slices white bread + 29 g jam (Example B4), time after eating 165 min
  glycemic profile (mM blood glucose): 6.55 mM
[2]; T2D5, 2 slices white bread + 29 g jam (Example B4), time after eating 180 min
  glycemic profile (mM blood glucose): 5.35 mM
[2]; T2D5, 2 slices white bread + 29 g jam (Example B4), time after eating −10 min
  glycemic profile (mM blood glucose): 6.5 mM
[2]; T2D5, 2 slices white bread + 29 g jam (Example B4), time after eating −25 min
  glycemic profile (mM blood glucose): 6.25 mM
[2]; T2D9, 2 slices white bread + 29 g jam (Example B5), time after eating 0 min
  glycemic profile (mM blood glucose): 11.8 mM
[2]; T2D9, 2 slices white bread + 29 g jam (Example B5), time after eating 15 min
  glycemic profile (mM blood glucose): 12.8 mM
[2]; T2D9, 2 slices white bread + 29 g jam (Example B5), time after eating 30 min
  glycemic profile (mM blood glucose): 11.6 mM
[2]; T2D9, 2 slices white bread + 29 g jam (Example B5), time after eating 45 min
  glycemic profile (mM blood glucose): 11.3 mM
[2]; T2D9, 2 slices white bread + 29 g jam (Example B5), time after eating 60 min
  glycemic profile (mM blood glucose): 11.4 mM
[2]; T2D9, 2 slices white bread + 29 g jam (Example B5), time after eating 75 min
  glycemic profile (mM blood glucose): 11.1 mM
[2]; T2D9, 2 slices white bread + 29 g jam (Example B5), time after eating 90 min
  glycemic profile (mM blood glucose): 10.4 mM
[2]; T2D9, 2 slices white bread + 29 g jam (Example B5), time after eating 105 min
  glycemic profile (mM blood glucose): 11.0 mM
[2]; T2D9, 2 slices white bread + 29 g jam (Example B5), time after eating 120 min
  glycemic profile (mM blood glucose): 11.8 mM
[2]; T2D9, 2 slices white bread + 29 g jam (Example B5), time after eating 135 min
  glycemic profile (mM blood glucose): 11.2 mM
[2]; T2D9, 2 slices white bread + 29 g jam (Example B5), time after eating 150 min
  glycemic profile (mM blood glucose): 11.8 mM
[2]; T2D9, 2 slices white bread + 29 g jam (Example B5), time after eating 165 min
  glycemic profile (mM blood glucose): 12.9 mM
[2]; T2D9, 2 slices white bread + 29 g jam (Example B5), time after eating 180 min
  glycemic profile (mM blood glucose): 10.2 mM
[2]; T2D9, 2 slices white bread + 29 g jam (Example B5), time after eating −10 min
  glycemic profile (mM blood glucose): 9.9 mM
[2]; T2D9, 2 slices white bread + 29 g jam (Example B5), time after eating −25 min
  glycemic profile (mM blood glucose): 10.4 mM
patients
  incidence of abdominal pain: 19%
  incidence of diarrhea: 31%
  incidence of flatulence: 74%

From patent US20180139987A1, “PHARMACEUTICAL POWDER COMPOSITION AND ITS USE IN THE CONTROL OF POST-PRANDIAL GLYCAEMIC PROFILE” (OMNIBLEND INNOVATION PTY LTD, priority 2015, published 2018)
